Reference: patent US20240287089A1, “Preparation and Uses of 7-Azaindenoisoquinolines” (Purdue Research Foundation, priority 0001, published 2024)

How the values were obtained:
[1] = system: SN12C (Renal); conditions: reference 20, read-out: Cytotoxicity GI50; cited from earlier work
[2] = Brain penetration and plasma/brain pharmacokinetics in combination with Temodar or Lynparza
Method: A similar analysis was performed with LMP744 and LMP400 in combination with Temodar and Lynparza.

[3] = system: MCF7 (Breast); conditions: reference 20, read-out: Cytotoxicity GI50; cited from earlier work
[4] = system: OVCAR-3 (Ovarian); conditions: Ovarian OVCAR-3; reference 20; read-out: Cytotoxicity GI50; cited from earlier work
[5] = 10 mg/kg IV + Lynparza 100 mg/kg PO, 0.25 h
[6] = 10 mg/kg IV + Lynparza 100 mg/kg PO, 0.5 h
[7] = 10 mg/kg IV + Lynparza 100 mg/kg PO, 1 h
[8] = 10 mg/kg IV + Lynparza 100 mg/kg PO, 2 h
[9] = 10 mg/kg IV + Lynparza 100 mg/kg PO, 4 h
[10] = 10 mg/kg IV + Lynparza 100 mg/kg PO, 8 h
[11] = 10 mg/kg IV + Lynparza 100 mg/kg PO, 24 h
[12] = LMP744 20 mg/kg IV + Temador 125 mg/kg PO, 0.25 h
[13] = LMP744 20 mg/kg IV + Temador 125 mg/kg PO, 0.5 h
[14] = LMP744 20 mg/kg IV + Temador 125 mg/kg PO, 1 h
[15] = LMP744 20 mg/kg IV + Temador 125 mg/kg PO, 2 h
[16] = LMP744 20 mg/kg IV + Temador 125 mg/kg PO, 4 h
[17] = LMP744 20 mg/kg IV + Temador 125 mg/kg PO, 8 h
[18] = LMP744 20 mg/kg IV + Temador 125 mg/kg PO, 24 h
[19] = brain, 10 mg/kg IV + Lynparza 100 mg/kg PO
[20] = brain, LMP744 20 mg/kg IV + Temador 125 mg/kg
[21] = plasma, 10 mg/kg IV + Lynparza 100 mg/kg PO
[22] = plasma, LMP744 20 mg/kg IV + Temador 125 mg/kg

COc1cc2c3c(n(CCCNCCO)c(=O)c2cc1OC)-c1cc2c(cc1C3=O)OCO2 [LMP744]
GI50 [1]: < 10 nM
Brain Conc [2, 5]: 89 ± 19 nM
Brain/Plasma Conc Ratio [2, 5]: 0.46
Plasma Conc [2, 5]: 1356 ± 229 nM
Brain Conc [2, 6]: 780 ± 24 nM
Brain/Plasma Conc Ratio [2, 6]: 0.83
Plasma Conc [2, 6]: 940 ± 155 nM
Brain Conc [2, 7]: 825 ± 250 nM
Brain/Plasma Conc Ratio [2, 7]: 2.05
Plasma Conc [2, 7]: 402 ± 29 nM
Brain Conc [2, 8]: 850 ± 58 nM
Brain/Plasma Conc Ratio [2, 8]: 2.64
Plasma Conc [2, 8]: 322 ± 88 nM
Brain Conc [2, 9]: 548 ± 28 nM
Brain/Plasma Conc Ratio [2, 9]: 2.91
Plasma Conc [2, 9]: 188 ± 54 nM
Brain Conc [2, 10]: 557 ± 66 nM
Brain/Plasma Conc Ratio [2, 10]: 7.74
Plasma Conc [2, 10]: 72 ± 26 nM
Brain Conc [2, 11]: 457 ± 61 nM
Brain/Plasma Conc Ratio [2, 11]: 20.30
Plasma Conc [2, 11]: 13 ± 2 nM
Brain Conc [2, 12]: 1093 ± 168 nM
Brain/Plasma Conc Ratio [2, 12]: 0.49
Plasma Conc [2, 12]: 2238 ± 465 nM
Brain Conc [2, 13]: 1199 ± 243 nM
Brain/Plasma Conc Ratio [2, 13]: 0.89
Plasma Conc [2, 13]: 1854 ± 101 nM
Brain Conc [2, 14]: 1390 ± 145 nM
Brain/Plasma Conc Ratio [2, 14]: 1.35
Plasma Conc [2, 14]: 1027 ± 202 nM
Brain Conc [2, 15]: 1328 ± 188 nM
Brain/Plasma Conc Ratio [2, 15]: 2.49
Plasma Conc [2, 15]: 534 ± 143 nM
Brain Conc [2, 16]: 1272 ± 188 nM
Brain/Plasma Conc Ratio [2, 16]: 3.58
Plasma Conc [2, 16]: 355 ± 37 nM
Brain Conc [2, 17]: 1244 ± 78 nM
Plasma Conc [2, 17]: 139 ± 17 nM
Brain Conc [2, 18]: 955 ± 76 nM
Brain/Plasma Conc Ratio [2, 18]: 46
Plasma Conc [2, 18]: 21 ± 4 nM
AUClast [2, 19]: 5860 ng·h/g
Cmax [2, 19]: 373 ng/g
Tmax [2, 19]: 2.00 h
AUClast [2, 20]: 12185 ng·h/g
Cmax [2, 20]: 611 ng/g
Tmax [2, 20]: 1.00 h
AUCInf [2, 21]: 1535 ng·h/mL
AUClast [2, 21]: 1491 ng·h/mL
AUClast/D [2, 21]: 149 h·ng/mL per mg/kg
AUC—% Extrap—obs [2, 21]: 2.83%
C0 [2, 21]: 2072 ng/mL
Cl_obs [2, 21]: 109 mL/min/kg
MRTInf—obs [2, 21]: 4.33 h
T1/2 [2, 21]: 5.43 h
Vss—obs [2, 21]: 28.2 L/kg
AUCInf [2, 22]: 2881 ng·h/mL
AUClast [2, 22]: 2813 ng·h/mL
AUClast/D [2, 22]: 141 h·ng/mL per mg/kg
AUC—% Extrap—obs [2, 22]: 2.37%
C0 [2, 22]: 4973 ng/mL
Cl_obs [2, 22]: 116 mL/min/kg
MRTInf—obs [2, 22]: 4.09 h
T1/2 [2, 22]: 5.20 h
Vss—obs [2, 22]: 28.4 L/kg
GI50 [3]: 790 nM
GI50 [4]: 350 nM
